Reference: US9226924B2, “Methods of treating or preventing neuropathic pain” (Toray Industries, Inc., priority 2010, dated 2016)

What was measured:
male ddY mice = test: mouse wheel running test (motor inhibitory effect)
Description: 8 male ddY mice of 5 weeks old were used as one experimental group for evaluation. The test compound, grouping of mice, vehicle used and administration method were the same as in Example 1.
Mice were placed in a running wheel apparatus (NATSUME SEISAKUSHO) 0.5 hour after administration of the test compound, and the number of revolutions of the running wheel was counted for a period of 1 hour immediately thereafter to evaluate a motor inhibitory effect.
In the same manner as in Example 2, motor inhibitory effects of oral administration of 30 and 100 mg/kg pregabalin were evaluated.
(§1) The symbol * in the figure indicates a significant difference (*p<0.025) from the group treated with vehicle.

[1] = tested on: mouse models of neuropathic pain (Seltzer's method, sciatic nerve ligation); test: von Frey test in mouse Seltzer model of neuropathic pain; format: in vivo; details: oral
Description: 7 to 8 male ICR mice of 5 weeks old were used as one experimental group for evaluation. Mouse models of neuropathic pain were prepared according to Seltzer's method (Seltzer et al., Pain, 1990, vol. 43, p. 205; Malmberg et al., Pain, 1998, vol. 76, p. 215). That is, the sciatic nerve at the femoral region of the right hindlimb of each mouse was exposed under anesthesia, and the sciatic nerve was triply ligated tightly with silk suture of 8-0 (NATSUME SEISAKUSHO) under microscope so that only half thickness of the nerve was trapped in the ligature.
Seven days after the above-described sciatic nerve ligation, using 0.5% methylcellulose as a vehicle, mice of each group received administration of vehicle, administration of a suspension of pregabalin (3 mg/kg) alone, administration of a suspension of Compound 3 (0.3 mg/kg) alone, or administration (combined administration) of a mixed suspension of pregabalin and Compound 3 (3 mg/kg and 0.3 mg/kg, respectively).
Evaluation of neuropathic pain (hereinafter “von Frey test”) was carried out as follows. Mouse models of neuropathic pain were conditioned for at least 1 hour in an acryl cage for measurement (NATSUME SEISAKUSHO) placed on a wire net. Thereafter, using a filament (North Coast Medical. Inc.) which exerted a pressure of 0.16 g, the mice were subjected to mechanical tactile stimulus by applying the filament to the plantar surface of both hindpaws 3 times, each for 3 seconds, with an interval of 3 seconds.
Seven days after sciatic nerve ligation, a von Frey test was carried out before administration of the test compound, 1 hour after administration, 2 hours after administration, and 3 hours after administration. Change in the total scores from before to after administration of the test compound (hereinafter “ΔvF test score”) was calculated by subtracting the total score obtained at each time point after administration of the test compound from the total score obtained before administration of the test compound, which was used as an indicator of analgesic effect.
That is, individual ΔvF test scores of the mice in the group treated with pregabalin alone and the mice in the group treated with Compound 3 alone were sorted in ascending order, respectively, and ΔvF test scores of the two groups at the same rank were added, thereby obtaining a theoretical total value.
The symbol # in the figures indicates a significant difference (###p<0.001) from the group treated with vehicle. […] The symbol * in the figures indicates a significant difference (*p<0.05, **p<0.01) from the theoretical total value.
In the same manner as in Example 1, effects of oral administration of 1, 3, 10 and 30 mg/kg pregabalin alone were evaluated 1 hour after administration in mouse models of neuropathic pain.
as §1

With COc1ccc(-n2nc(C3(O)CCC(O)CC3)cc2-c2ccc(C)cc2)cc1 (stereo not drawn) [Compound 3, 1-(1-(4-methoxyphenyl)-5-(p-tolyl)-1H-pyrazol-3-yl)cyclohex-an-cis-1,4-diol] the “motor inhibitory effect (number of revolutions of running wheel)” value (shortened to “motor inhibitory effect”) (male ddY mice; 0.3 mg/kg Compound 3 alone, oral, 0.5 to 1.5 hours after administration) was “No statistically-significant motor inhibitory effect was found” and the “analgesic effect (ΔvF test score)” value ([1]; 0.3 mg/kg Compound 3 alone, 1 hour, 2 hours and 3 hours after administration, male ICR mice) was “an analgesic effect was not observed”.

CC(C)C[C@H](CN)CC(=O)O [Pregabalin, S-(+)-4-amino-3-(2-methylpropyl) butanoic acid] was tested, and the “motor inhibitory effect” value (male ddY mice; 3 mg/kg pregabalin alone, oral, 0.5 to 1.5 hours after administration) was “No statistically-significant motor inhibitory effect was found”, the “motor inhibitory effect” value (male ddY mice; 30 mg/kg pregabalin alone, oral (Comparative Example 2), *p<0.025 vs vehicle) was “statistically significantly reduced the number of revolutions” and the “motor inhibitory effect” value (male ddY mice; 100 mg/kg pregabalin alone, oral (Comparative Example 2), *p<0.025 vs vehicle) was “statistically significantly reduced the number of revolutions”. The “analgesic effect (ΔvF test score)” value ([1]; 1 mg/kg pregabalin alone, 1 hour after administration (Comparative Example 1)) was “No analgesic effect was observed”, the “analgesic effect (ΔvF test score)” value ([1]; 3 mg/kg pregabalin alone, 1 hour after administration (Comparative Example 1)) was “No analgesic effect was observed” and the “analgesic effect (ΔvF test score)” value ([1]; 3 mg/kg pregabalin alone, 1 hour, 2 hours and 3 hours after administration, male ICR mice) was “an analgesic effect was not observed”. For the same compound, the “analgesic effect (ΔvF test score)” value ([1]; 10 mg/kg pregabalin alone, 1 hour after administration (Comparative Example 1), *p<0.025 vs vehicle) was “a statistically-significant analgesic effect was observed”, the “analgesic effect relative to combined administration of 3 mg/kg pregabalin and 0.3 mg/kg Compound 3” value ([1]; 30 mg/kg pregabalin alone, 1 hour after administration) was “about the same level” and the “analgesic effect (ΔvF test score)” value ([1]; 30 mg/kg pregabalin alone, 1 hour after administration (Comparative Example 1), *p<0.025 vs vehicle) was “a statistically-significant analgesic effect was observed”.
